Results taken from ChEMBL document CHEMBL1759998, “Discovery and synthesis of novel 3-phenylcoumarin derivatives as antidepressant agents” (Bioorg Med Chem Lett, 2011).
Activity calls are given as the source filed them. The rule behind the calls is not given here.

Columns and labels:
Mus musculus [1] = assay: Antidepressant activity in Swiss albino mouse assessed as decrease in immobility duration at 0.5 mg/kg, ip administered 30 mins prior to test measured after 30 mins by tail suspension test (reference value: 79.9%); format: functional; design: scale not given: the % may be the effect or the level left; conditions: route intraperitoneal
Mus musculus [2] = assay: Antidepressant activity in Swiss albino mouse assessed as decrease in immobility time at 0.5 mg/kg, ip measured for 6 mins by forced swim test; format: functional, organism-based; design: dose 0.5 mg/kg
Mus musculus [3] = assay: Neurotoxicity in Swiss albino mouse assessed as deffect in motor coordination at 1 mg/kg, ip measured for 2 mins by rotarod test; format: toxicity, organism-based; design: dose 1 mg/kg, route intraperitoneal; conditions: in vivo
Mus musculus [4] = assay: Antidepressant activity in Swiss albino mouse assessed as decrease in immobility time at 0.25 mg/kg, ip measured for 6 mins by forced swim test; format: functional, organism-based; design: dose 0.25 mg/kg
[5] = Solubility of the compound; format: physicochemical
Mus musculus [6] = assay: Antidepressant activity in Swiss albino mouse assessed as decrease in immobility time at 30 mg/kg, ip measured for 6 mins by forced swim test; format: functional, organism-based; design: dose 30 mg/kg
Mus musculus [7] = assay: Antidepressant activity in Swiss albino mouse assessed as decrease in immobility duration at 30 mg/kg, ip administered 30 mins prior to test measured after 30 mins by tail suspension test (reference value: 79.9%); format: functional; design: scale not given: the % may be the effect or the level left; conditions: route intraperitoneal

With CCC(C)c1cc(C=O)cc2cc(-c3cccc(OC)c3)c(=O)oc12 (stereo not given) as the molecule, how does the Activity (Mus musculus [1]) read?
The Activity was 70.6%.

With CCC(C)c1cc(C=O)cc2cc(-c3ccc(OC)c(OC)c3)c(=O)oc12 (stereo not given) as the molecule, how does the Activity (Mus musculus [1]) read?
The Activity was 72.5%.

With CCC(C)c1cc(C=O)cc2cc(-c3ccc(OC)cc3)c(=O)oc12 (stereo not given) as the molecule, how does the Activity (Mus musculus [1]) read?
The Activity was 71.4%.

For COc1ccc(-c2cc3cc(C)c4ccccc4c3oc2=O)cc1, which Activity (Mus musculus [2]) is on record?
Its Activity is “Active”.

What about the Activity (Mus musculus [3]) of the same molecule?
The Activity was “Non-toxic”.

And the Activity (Mus musculus [4])?
Its Activity is “Active”.

And the Activity (Mus musculus [1])?
Its Activity is 49.9%.

Which solubility [5] does the source give for COc1ccc(-c2cc3cc(C)c4ccccc4c3oc2=O)cc1OC here?
The solubility was “Insoluble”.

For CN(C)CCCN1c2ccccc2CCc2ccccc21 [IMIPRAMINE], which Activity (Mus musculus [6]) is on record?
Its Activity is “Active”.

And the Activity (Mus musculus [7])?
Its Activity is 20.6%.

With COc1ccccc1-c1cc2cc(C=O)cc(C)c2oc1=O as the molecule, how does the solubility [5] read?
Its solubility is “Insoluble”.

What does the source list for COc1ccc(-c2cc3cc(C=O)cc(C)c3oc2=O)cc1OC?
Activity (Mus musculus [2]): Active; Activity (Mus musculus [3]): Non-toxic; Activity (Mus musculus [4]): Active; Activity (Mus musculus [1]): 39.1%

With COc1ccc(-c2cc3cc(C=O)cc(C)c3oc2=O)cc1 as the molecule, how does the Activity (Mus musculus [1]) read?
Its Activity is 78.1%.

With COc1ccc(-c2cc3cc(C)c4ccccc4c3oc2=O)c(OC)c1OC as the molecule, how does the Activity (Mus musculus [1]) read?
Its Activity is 63.6%.

Which results are given for COc1ccc(-c2cc3cc(C=O)cc(C)c3oc2=O)c(OC)c1OC?
Activity (Mus musculus [2]): Active; Activity (Mus musculus [3]): Non-toxic; Activity (Mus musculus [1]): 47.3%
